Experimental data as given in patent publication EP0835871B1, “Benzo [b] thiophene compounds, intermediates, formulations, and methods” (ELI LILLY AND COMPANY, priority 1996, dated 1998).

How the values were obtained:
[1] = system: Serum cholesterol; assay: Serum cholesterol analysis in ovariectomized rats; assay type: in vivo; conditions: decrease versus ovariectomized controls, * p<0.05
Description: (§1) In the examples illustrating the methods, a post-menopausal model was used in which effects of different treatments upon circulating lipids were determined.
(§2) Seventy-five day old female Sprague Dawley rats (weight range of 200 to 225g) are obtained from Charles River Laboratories (Portage, MI). The animals are either bilaterally ovariectomized (OVX) or exposed to a Sham surgical procedure at Charles River Laboratories, and then shipped after one week. Upon arrival, they are housed in metal hanging cages in groups of 3 or 4 per cage and have ad libitum access to food (calcium content approximately 0.5%) and water for one week. Room temperature is maintained at 22.2° ± 1.7° C with a minimum relative humidity of 40%. The photoperiod in the room is 12 hours light and 12 hours dark.
(§3) Dosing Regimen Tissue Collection. After a one week acclimation period (therefore, two weeks post-OVX) daily dosing with test compound is initiated. 17α-ethynyl estradiol or the test compound are given orally, unless otherwise stated, as a suspension in 1% carboxymethylcellulose or dissolved in 20% cyclodextrin. Animals are dosed daily for 4 days. Following the dosing regimen, animals are weighed and anesthetized with a ketamine: Xylazine (2:1, V:V) mixture and a blood sample is collected by cardiac puncture. The animals are then sacrificed by asphyxiation with CO2, the uterus is removed through a midline incision, and a wet uterine weight is determined.
Cholesterol Analysis. Blood samples are allowed to clot at ambient temperature for 2 hours, and serum is obtained following centrifugation for 10 minutes at 3000 rpm. Serum cholesterol is determined using a Boehringer Mannheim Diagnostics high performance cholesterol assay. Briefly, the cholesterol is oxidized to cholest-4-en-3-one and hydrogen peroxide. The hydrogen peroxide is then reacted with phenol and 4-aminophenazone in the presence of peroxidase to produce a p-quinone imine dye, which is read spectrophotemetrically at 500 nm. Cholesterol concentration is then calculated against a standard curve.

[2] = system: female Sprague Dawley rats; assay: Uterine wet weight in the post-menopausal (ovariectomized rat) model, 4 days of oral dosing; assay type: in vivo; conditions: % increase versus the ovariectomized controls, * p<0.05
Description: as §1, §2, §3

[3] = system: Uterine Eosinophil Peroxidase (EPO); assay: Uterine Eosinophil Peroxidase (EPO) Assay in ovariectomized rats; assay type: in vivo; design: unit not given here; conditions: Vmaximum, * p<0.05
Description: as §2, §3
Uterine Eosinophil Peroxidase (EPO) Assay. Uteri are kept at 4° C until time of enzymatic analysis. The uteri are then homogenized in 50 volumes of 50 mM Tris buffer (pH - 8.0) containing 0.005% Triton X-100. Upon addition of 0.01% hydrogen peroxide and 10 mM o-phenylenediamine (final concentrations) in Tris buffer, increase in absorbance is monitored for one minute at 450 nm. The presence of eosonophils in the uterus is an indication of estrogenic activity of a compound. The maximal velocity of a 15 second interval is determined over the initial, linear portion of the reaction curve.

[4] = system: MCF-7 breast adenocarcinoma cells (ATCC HTB 22); assay: MCF-7 Proliferation Assay (tritiated thymidine uptake); assay type: cell-based; conditions: MCF-7 cells, 48 hours with drug, tritiated thymidine pulse 4 hours
Description: MCF-7 Proliferation Assay
MCF-7 breast adenocarcinoma cells (ATCC HTB 22) were maintained in MEM (minimal essential medium, phenol red-free, Sigma, St. Louis, MO) supplemented with 10% fetal bovine serum (FBS) (V/V), L-glutamine (2 mM), sodium pyruvate (1 mM), HEPES {(N-[2-hydroxyethyl]piperazine-N'-[2-ethanesulfonic acid] 10 mM}, non-essential amino acids and bovine insulin (1 ug/mL) (maintenance medium). Ten days prior to assay, MCF-7 cells were switched to maintenance medium supplemented with 10% dextran coated charcoal stripped fetal bovine serum (DCC-FBS) assay medium) in place of 10% FBS to deplete internal stores of steroids. MCF-7 cells were removed from maintenance flasks using cell dissociation medium [Ca++/Mg++ free HBSS (phenol red-free) supplemented with 10 mM HEPES and 2 mM EDTA]. Cells were washed twice with assay medium and adjusted to 80,000 cells/mL. Approximately […] (8,000 cells) were added to flat-bottom microculture wells (Costar 3596) and incubated at 37° C in a 5% CO2 humidified incubator for 48 hours to allow for cell adherence and equilibration after transfer. Serial dilutions of drugs or DMSO as a diluent control were prepared in assay medium and […] to triplicate microcultures followed by […] assay medium for a final volume of […]. After an additional 48 hours at 37° C in a 5% CO2 humidified incubator, microcultures were pulsed with tritiated thymidine (1 µCi/well) for 4 hours. Cultures were terminated by freezing at -70° C for 24 hours followed by thawing and harvesting of microcultures using a Skatron Semiautomatic Cell Harvester. Samples were counted by liquid scintillation using a Wallac BetaPlace β counter. The compounds of formula I are active and potent in inhibiting the tumor cell growth, see: Table 2.

| Compound | Serum Cholesterol (% Dec.) ([1]; dose printed as 0. mg/kg PO) | Uterine Wt. (% Inc.) ([2]; dose printed as 0. mg/kg PO) | Uterine EPO (Vmax) ([3]; dose printed as 0. mg/kg PO) | Serum Cholesterol (% Dec.) ([1]; 0.1 mg/kg PO) | Serum Cholesterol (% Dec.) ([1]; 1 mg/kg PO) | Serum Cholesterol (% Dec.) ([1]; 10 mg/kg PO) | IC50 ([4]; Homo sapiens, MCF7) | Uterine Wt. (% Inc.) ([2]; 0.1 mg/kg PO) | Uterine Wt. (% Inc.) ([2]; 1 mg/kg PO) | Uterine Wt. (% Inc.) ([2]; 10 mg/kg PO) | Uterine EPO (Vmax) ([3]; 0.1 mg/kg PO) | Uterine EPO (Vmax) ([3]; 1 mg/kg PO) | Uterine EPO (Vmax) ([3]; 10 mg/kg PO) | IC50 [4] |
| --- | --- | --- | --- | --- | --- | --- | --- | --- | --- | --- | --- | --- | --- | --- |
| C#C[C@]1(O)CC[C@H]2[C@@H]3CCc4cc(O)ccc4[C@H]3CC[C@@]21C [EE2, 17-α-Ethynyl-estradiol, reference compound] | 85.1* % | 171.2* % | 142.4* | – | – | – | – | – | – | – | – | – | – | – |
| COC(=O)c1ccc2c(C(=O)c3ccc(OCCN4CCCCC4)cc3)c(-c3ccc(O)cc3)sc2c1.Cl [Example 1, [2-(4-Hydroxyphenyl)-6-methoxycarbonylbenzo[b]thien-3-yl][4-[2-(1-piperidinyl)ethoxy]phenyl]methanone Hydrochloride] | – | – | – | -8.6% | 42.5* % | 56.1* % | 40 nM | 46.9* % | 19.1% | 45.2* % | 4.5 | 4.8 | 7.5 | – |
| CCCCOC(=O)c1ccc2c(C(=O)c3ccc(OCCN4CCCCC4)cc3)c(-c3ccc(O)cc3)sc2c1 [Example 2, [2-(4-Hydroxyphenyl)-6-n-butoxycarbonylbenzo[b]thien-3-yl][4-[2-(1-piperidinyl)ethoxy]phenyl]methanone] | – | – | – | -1.2% | 26.7% | 55.6* % | 45 nM | 19.4% | 16.8% | 52.5* % | 2.4 | 0.0 | 4.8 | – |
| CC(C)COC(=O)c1ccc2c(C(=O)c3ccc(OCCN4CCCCC4)cc3)c(-c3ccc(O)cc3)sc2c1 [Example 3] | – | – | – | -2.4% | 8.7% | 58.0* % | – | 11.8% | 21.7% | 47.1* % | 3.3 | 3.3 | 4.8 | 45 nM |
| Cl.O=C(O)c1ccc2c(C(=O)c3ccc(OCCN4CCCCC4)cc3)c(-c3ccc(O)cc3)sc2c1 [Example 4, [2-(4-Hydroxyphenyl)-6-carboxybenzo[b]thien-3-yl][4-[2-(1-piperidinyl)ethoxy]phenyl]methanone Hydrochloride] | – | – | – | 0.6% | 10.4% | 44.9* % | – | 18.8% | 27.2% | 29.6* % | 3.3 | 3.0 | 3.6 | – |
| CC(=O)c1ccc2c(C(=O)c3ccc(OCCN4CCCCC4)cc3)c(-c3ccc(O)cc3)sc2c1 [Example 5, [2-(4-Hydroxyphenyl)-6-acetylbenzo[b]thien-3-yl][4-[2-(1-piperidinyl)ethoxy]phenyl]methanone] | – | – | – | -6.3% | 20.4% | 45.4* % | 60 nM | 18.8% | 51.8* % | 69.4* % | 1.2 | 2.1 | 5.4 | – |
| C#Cc1ccc2c(C(=O)c3ccc(OCCN4CCCCC4)cc3)c(-c3ccc(O)cc3)sc2c1 [Example 6, [2-(4-Hydroxyphenyl)-6-ethynylbenzo[b]thien-3-yl][4-[2-(1-piperidinyl)ethoxy]phenyl]methanone] | – | – | – | 39.4* % | 58.7* % | 65.8* % | 20 nM | 14.3% | 27.8% | 22.5% | 3.9 | 4.8 | 4.8 | – |
